Results as given in publication PMC10835127, “Viruses traverse the human proteome through peptide interfaces that can be biomimetically leveraged for drug discovery” (Proceedings of the National Academy of Sciences of the …, 2024).
Read-outs that look alike come from different tables or passages of the source.

Legend:
in vivo [1] = conditions: male, Sprague Dawley, rat, 50 mg/kg, 50 mg/kg per os
Experimental: For this molecule, both antiviral potency (IC50 of 3 nM) and PK properties were improved, with low clearance and high exposure in mouse plasma. […] The tissue distribution was also assessed at two different time points (2 and 24 h) after per os administration in mice (20 mg/kg) and rats (50 mg/kg) (Fig. 5C). […] Such low lung/plasma ratio precluded the use of dEF3122 in respiratory diseases such as influenza without further optimization.

in vivo [2] = conditions: male, CD1, mouse, 20 mg/kg, 20 mg/kg per os

SMILES: O=C(Nc1scc(C2CCc3ccccc3C2)c1C(=O)O)c1ccccc1 (centres unmarked) [dEF3122]
- Kp (in vivo [1]; 2 h, read-out: Liver:Plasma Ratio): 0.91
- Kp (in vivo [1]; 2 h, read-out: Lung:Plasma Ratio): 0.11
- Kp (in vivo [1]; 24 h, read-out: Liver:Plasma Ratio): 0.78
- Kp (in vivo [1]; 24 h, read-out: Lung:Plasma Ratio): 0.18
- Kp (in vivo [2]; Liver:Plasma Ratio, 2 h): 0.45
- Kp (in vivo [2]; Liver:Plasma Ratio, 24 h): 0.88
- Kp (in vivo [2]; Lung:Plasma Ratio, 2 h): 0.12
- Kp (in vivo [2]; Lung:Plasma Ratio, 24 h): 0.13
